In patent US9624170B2, “4-(piperrazin-1-yl)-pyrrolidin-2-one compounds as monoacylglycerol lipase (MAGL) inhibitors” (TAKEDA PHARMACEUTICAL COMPANY LIMITED, priority 2013, dated 2017):

target: T1, human MAGL (His-hMAGL) (Homo sapiens, UniProt Q99685); test: Measurement of MAGL inhibitory activity by mass spectrometry; format: biochemical; conditions: MAGL inhibitory rate, test compound 10 μM, His-hMAGL, substrate 2-arachidonylglycerol, RapidFire-mass spectrometry
T1 construct: made in house; host or cells: Escherichia coli BL21(DE3)
T1 sequence (Q99685 1-303): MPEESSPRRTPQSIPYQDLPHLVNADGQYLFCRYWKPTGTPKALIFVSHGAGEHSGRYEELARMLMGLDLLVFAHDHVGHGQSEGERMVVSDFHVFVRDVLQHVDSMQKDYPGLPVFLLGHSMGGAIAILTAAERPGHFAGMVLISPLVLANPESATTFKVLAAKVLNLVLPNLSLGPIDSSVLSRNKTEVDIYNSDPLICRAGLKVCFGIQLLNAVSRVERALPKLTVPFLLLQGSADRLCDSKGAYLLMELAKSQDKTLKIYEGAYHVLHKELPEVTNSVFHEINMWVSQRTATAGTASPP
How it was run: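 His-tagged human MAGL was reacted with 150 μM 2-arachidonylglycerol substrate (stock, added by 5 μL) for 10 min at room temperature, then stopped with formic acid. Arachidonic acid product was quantified by RapidFire–triple-quadrupole MS in negative SRM mode, corrected by arachidonic acid-d8, and converted to percent inhibition.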

Row | SMILES | inhibition at 10 µM
1 | Cc1ccccc1-c1cccc(N2CC(N3CCN(C(=O)c4ncco4)CC3)CC2=O)c1 (stereo not shown) [Example 221, 1-(2′-methylbiphenyl-3-yl)-4-(4-(1,3-oxazol-2-ylcarbonyl)piperazin-1-yl)pyrrolidin-2-one] | 101%
2 | O=C1Cc2cccc(-c3cccc(N4CC(N5CCN(C(=O)c6nccs6)CC5)CC4=O)c3)c2N1 (stereo not shown) [Example 222, 7-(3-(2-oxo-4-(4-(1,3-thiazol-2-ylcarbonyl)piperazin-1-yl)pyrrolidin-1-yl)phenyl)-1,3-dihydro-2H-indol-2-one] | 98%
3 | O=C(c1cscn1)N1CCN(C2CC(=O)N(c3cccc(-c4cccnc4Cl)c3)C2)CC1 (stereo not shown) [Example 223, 1-(3-(2-chloropyridin-3-yl)phenyl)-4-(4-(1,3-thiazol-4-ylcarbonyl)piperazin-1-yl)pyrrolidin-2-one] | 101%
4 | O=C(c1ncco1)N1CCN(C2CC(=O)N(c3cccc(-c4cccnc4Cl)c3)C2)CC1 (stereo not shown) [Example 224, 1-(3-(2-chloropyridin-3-yl)phenyl)-4-(4-(1,3-oxazol-2-ylcarbonyl)piperazin-1-yl)pyrrolidin-2-one] | 100%
5 | CC1C(N2CCN(C(=O)c3nccs3)CC2)CC(=O)N1c1ccc(Oc2ccccc2)cc1 (stereo not shown) [Example 228, 5-Methyl-1-(4-phenoxyphenyl)-4-(4-(1,3-thiazol-2-ylcarbonyl)piperazin-1-yl)pyrrolidin-2-one] | 96%
6 | CN1C(=O)Cc2cccc(-c3cccc(N4CC(N5CCN(C(=O)c6nccs6)CC5)CC4=O)c3)c21 (stereo not shown) [Example 229, 1-methyl-7-(3-(2-oxo-4-(4-(1,3-thiazol-2-ylcarbonyl)piperazin-1-yl)pyrrolidin-1-yl)phenyl)-1,3-dihydro-2H-indol-2-one] | 100%
7 | CN1C(=O)Cc2c(-c3cccc(N4CC(N5CCN(C(=O)c6nccs6)CC5)CC4=O)c3)cccc21 (stereo not shown) [Example 230, 1-methyl-4-(3-(2-oxo-4-(4-(1,3-thiazol-2-ylcarbonyl)piperazin-1-yl)pyrrolidin-1-yl)phenyl)-1,3-dihydro-2H-indol-2-one] | 101%
8 | CC1(C)C(=O)Nc2cccc(-c3cccc(N4CC(N5CCN(C(=O)c6nccs6)CC5)CC4=O)c3)c21 (stereo not shown) [Example 231, 3,3-dimethyl-4-(3-(2-oxo-4-(4-(1,3-thiazol-2-ylcarbonyl)piperazin-1-yl)pyrrolidin-1-yl)phenyl)-1,3-dihydro-2H-indol-2-one] | 100%

Other lines, results leading:

Row | inhibition at 10 µM | SMILES
9 | 99% | O=C(c1cscn1)N1CCN(C2CC(=O)N(c3cccc(-c4ccccc4Cl)c3)C2)CC1 (stereo not drawn) [Example 232, 1-(2′-Chlorobiphenyl-3-yl)-4-(4-(1,3-thiazol-4-ylcarbonyl)piperazin-1-yl)pyrrolidin-2-one (optical isomer)]
10 | 98% | O=C(c1nccs1)N1CCN([C@@H]2CC(=O)N(c3ccc4c(ccn4-c4ccc(C(F)(F)F)nn4)c3)C2)CC1 [Example 234, (4R)-4-(4-(1,3-thiazol-2-ylcarbonyl)piperazin-1-yl)-1-(1-(6-(trifluoromethyl)pyridazin-3-yl)-1H-indol-5-yl)pyrrolidin-2-one]
11 | 100% | Cc1ccc(-n2ccc3cc(N4CC(N5CCN(C(=O)c6nccs6)CC5)CC4=O)ccc32)cc1 (stereo not shown) [Example 235, 1-(1-(4-methylphenyl)-1H-indol-5-yl)-4-(4-(1,3-thiazol-2-ylcarbonyl)piperazin-1-yl)pyrrolidin-2-one]
12 | 100% | Cc1cccc(-n2ccc3cc(N4CC(N5CCN(C(=O)c6nccs6)CC5)CC4=O)ccc32)n1 (stereo not shown) [Example 238, 1-(1-(6-methylpyridin-2-yl)-1H-indol-5-yl)-4-(4-(1,3-thiazol-2-ylcarbonyl)piperazin-1-yl)pyrrolidin-2-one]
13 | 100% | Cc1ccc(-n2ccc3cc(N4CC(N5CCN(C(=O)c6nccs6)CC5)CC4=O)ccc32)nc1 (stereo not shown) [Example 239, 1-(1-(5-methylpyridin-2-yl)-1H-indol-5-yl)-4-(4-(1,3-thiazol-2-ylcarbonyl)piperazin-1-yl)pyrrolidin-2-one]
